Assay results from US20250059164A1, “IRAK DEGRADERS AND USES THEREOF” (Kymera Therapeutics, Inc., priority 2023, published 2025).

How the values were obtained:
[1] = Rodent pharmacokinetics (rat PK); format: in vivo; conditions: po, dosed intravenously or orally by gavage, plasma, read-out: F % (bioavailability)
Method: All studies related to handling, care, and treatment of rats in the study were performed according to the guidelines approved by the Institutional Animal Care and Use Committee (IACUC). All rats had access to food and water ad libitum. Rats were dosed intravenously or orally by gavage. Whole blood was collected from the jugular vein immediately prior to dosing and at 5 (intravenously administered drugs only), 15, and 30 min and 1, 2, 4, 8, and 24 h after drug administration. After sampling, whole blood was centrifuged at 4,000×g for 5 min at 4° C. to obtain plasma.
The letter codes for bioavailability (F %) include: A (≥5%) and B (≤5%).

IRAK4 = target: T1, IRAK4 (Homo sapiens, UniProt Q9NWZ3); assay: IRAK4 MSD degradation in OCI-LY10; format: cell-based; conditions: OCI-LY10 cells, 24 hrs, Meso Scale Discovery
T1 construct: endogenous in cells; host or cells: OCI-LY10
T1 sequence (Q9NWZ3 1-460): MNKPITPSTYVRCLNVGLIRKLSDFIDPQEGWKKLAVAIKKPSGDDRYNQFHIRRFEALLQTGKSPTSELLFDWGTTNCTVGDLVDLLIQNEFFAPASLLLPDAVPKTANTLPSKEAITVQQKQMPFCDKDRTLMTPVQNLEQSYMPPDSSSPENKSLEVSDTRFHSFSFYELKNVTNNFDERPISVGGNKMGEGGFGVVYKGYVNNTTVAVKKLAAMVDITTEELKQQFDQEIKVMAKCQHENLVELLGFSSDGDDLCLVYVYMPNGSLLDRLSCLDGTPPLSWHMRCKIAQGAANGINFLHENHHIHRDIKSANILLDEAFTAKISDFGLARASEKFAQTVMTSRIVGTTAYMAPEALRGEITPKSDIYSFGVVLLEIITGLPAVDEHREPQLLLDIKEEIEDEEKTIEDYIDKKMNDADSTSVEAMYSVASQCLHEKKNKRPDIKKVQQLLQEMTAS
How it was run: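 OCI-LY10 cells treated 4 to 24 hours at 37° C. with 8-dose 1:3 series, top 1 to 10 μM. IRAK4 in lysates quantified by MSD sandwich immunoassay (mouse capture, rabbit detection, SULFO-TAG anti-rabbit). DC50 from three-parameter logistic fit.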

| Structure (SMILES) | bioavailability [1] [%] | DC50 (IRAK4) [nM] |
| --- | --- | --- |
| Cn1c(=O)n(C2CCC(=O)NC2=O)c2cccc(C#CCN3CCN(C[C@H]4CC[C@H](n5cc(NC(=O)c6cnn7ccc(N8C[C@H]9C[C@@H]8CO9)nc67)c(C(F)F)n5)CC4)C[C@H]3C(F)(F)F)c21 (single isomer, unassigned) [I-304] | ≥ 5 | 10 to 100 |
| CN(C[C@H]1CC[C@H](c2nc3cc(C(C)(C)O)c(NC(=O)c4cncc(C(F)(F)F)n4)cc3s2)CC1)[C@@H]1CCN(c2cccc3c2n(C)c(=O)n3C2CCC(=O)NC2=O)C[C@@H]1F (single isomer, unassigned) [I-309] | ≥ 5 | < 10 |
| Cn1c(=O)n(C2CCC(=O)NC2=O)c2cccc(N3CCN(C[C@H]4CC[C@H](n5cc6cc(NC(=O)c7cncc(C(F)(F)F)n7)ccc6n5)CC4)C[C@@H]3C(F)(F)F)c21 (single isomer, unassigned) [I-313] | ≥ 5 | < 10 |
| Cn1c(=O)n(C2CCC(=O)NC2=O)c2cccc([C@@H]3CCN(C[C@H]4CC[C@H](n5cc(NC(=O)c6cnn7ccc(N8C[C@H]9C[C@@H]8CO9)nc67)c(C(F)F)n5)CC4)CC3(F)F)c21 (single isomer, unassigned) [I-331] | ≤ 5 | < 10 |
| Cn1c(=O)n(C2CCC(=O)NC2=O)c2cccc([C@H]3CCN(C[C@H]4CC[C@H](n5cc(NC(=O)c6cnn7ccc(N8C[C@H]9C[C@@H]8CO9)nc67)c(C(F)F)n5)CC4)CC3(F)F)c21 (single isomer, unassigned) [I-332] | ≤ 5 | < 10 |
| Cc1nn(C2CCC(=O)NC2=O)c2cccc([C@@H]3CCN(C[C@H]4CC[C@H](n5cc6cc(NC(=O)c7cncc(C(F)(F)F)n7)ncc6n5)CC4)C[C@H]3F)c12 (single isomer, unassigned) [I-340] | ≥ 5 | 10 to 100 |
| Cn1c(=O)n(C2CCC(=O)NC2=O)c2ccc(F)c([C@@H]3CCN(C[C@H]4CC[C@H](n5cc6cc(NC(=O)c7cncc(C(F)(F)F)n7)ccc6n5)CC4)C[C@H]3F)c21 (single isomer, unassigned) [I-348] | ≥ 5 | < 10 |
| Cn1c(=O)n(C2CCC(=O)NC2=O)c2ccc(F)c([C@H]3CCN(C[C@H]4CC[C@H](n5cc6cc(NC(=O)c7cncc(C(F)(F)F)n7)ccc6n5)CC4)C[C@@H]3F)c21 (single isomer, unassigned) [I-353] | ≥ 5 | 10 to 100 |
| O=C1CCC(n2c(=O)oc3c([C@H]4CCN(C[C@H]5CC[C@H](n6cc7cc(NC(=O)c8cncc(C(F)(F)F)n8)ccc7n6)CC5)C[C@@H]4F)cccc32)C(=O)N1 (single isomer, unassigned) [I-360] | ≤ 5 | > 200 |

Results, then the compound that gave them:

| bioavailability [1] [%] | DC50 (IRAK4) [nM] | Structure (SMILES) |
| --- | --- | --- |
| ≤ 5 | < 10 | COc1cn2nc([C@H]3CC[C@H](CN(C)[C@@H]4CCN(c5cccc6c5n(C)c(=O)n6C5CCC(=O)NC5=O)C[C@@H]4F)CC3)cc2cc1NC(=O)c1cncc(C(F)(F)F)n1 (single isomer, unassigned) [I-302] |
| ≤ 5 | < 10 | COc1cc2nc([C@H]3CC[C@H](CN(C)[C@@H]4CCN(c5cccc6c5n(C)c(=O)n6C5CCC(=O)NC5=O)C[C@@H]4F)CC3)cn2cc1NC(=O)c1cncc(C(F)(F)F)n1 (single isomer, unassigned) [I-319] |
| ≤ 5 | < 10 | Cn1c(=O)n(C2CCC(=O)NC2=O)c2cccc([C@@H]3CCN(C[C@H]4CC[C@H](n5cc(NC(=O)c6cnn7ccc(N8C[C@H]9C[C@@H]8CO9)nc67)c(C(F)F)n5)CC4)C[C@H]3F)c21 (single isomer, unassigned) [I-329] |
| ≤ 5 | < 10 | Cn1c(=O)n(C2CCC(=O)NC2=O)c2cccc([C@H]3CCN(C[C@H]4CC[C@H](n5cc(NC(=O)c6cnn7ccc(N8C[C@H]9C[C@@H]8CO9)nc67)c(C(F)F)n5)CC4)C[C@@H]3F)c21 (single isomer, unassigned) [I-330] |
| ≤ 5 | < 10 | O=C1CCC(n2c(=O)oc3c([C@@H]4CCN(C[C@H]5CC[C@H](n6cc7cc(NC(=O)c8cncc(C(F)(F)F)n8)ccc7n6)CC5)C[C@H]4F)cccc32)C(=O)N1 (single isomer, unassigned) [I-357] |
